From PubChem BioAssay AID1845208 (Molecular Pharmacology Branch, DTP, NCI, 2023)

System: NCI-H196 SCLC complex tumor spheroid viability
Experiment: Anticancer human tumor NCI-H196 cell line growth inhibition;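 also: spheroids exposed to compounds for 7 days before readout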;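 as to viability, T/C: 100% = DMSO vehicle control wells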
Conditions: for IC50: curve of first compound; for viability, T/C: stronger effect = lower value
In short: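 Complex spheroids of malignant cells with endothelial cells and mesenchymal stem cells; agents alone or combined, from near clinical Cmax (or 10 microM if unknown) down in half-log steps, 0.25% DMSO final.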

[1] = second compound 1 µM, first compound 0.0316 µM
[2] = second compound 1 µM, first compound 0.1 µM
[3] = second compound 1 µM, first compound 0.316 µM
[4] = second compound 1 µM, first compound 1 µM
[5] = second compound 1 µM, first compound 3.16 µM
[6] = second compound 1 µM, first compound 10 µM
[7] = second compound 3.16 µM, first compound 0.0316 µM
[8] = second compound 3.16 µM, first compound 0.1 µM
[9] = second compound 3.16 µM, first compound 0.316 µM
[10] = second compound 3.16 µM, first compound 1 µM
[11] = second compound 3.16 µM, first compound 3.16 µM
[12] = second compound 3.16 µM, first compound 10 µM
[13] = second compound 10 µM, first compound 0.0316 µM
[14] = second compound 10 µM, first compound 0.1 µM
[15] = second compound 10 µM, first compound 0.316 µM
[16] = second compound 10 µM, first compound 1 µM
[17] = second compound 10 µM, first compound 3.16 µM
[18] = second compound 10 µM, first compound 10 µM
[19] = second compound 31.6 µM, first compound 0.0316 µM
[20] = second compound 31.6 µM, first compound 0.1 µM
[21] = second compound 31.6 µM, first compound 0.316 µM
[22] = second compound 31.6 µM, first compound 1 µM
[23] = second compound 31.6 µM, first compound 3.16 µM
[24] = second compound 31.6 µM, first compound 10 µM
[25] = second compound 100 µM, first compound 0.0316 µM
[26] = second compound 100 µM, first compound 0.1 µM
[27] = second compound 100 µM, first compound 0.316 µM
[28] = second compound 100 µM, first compound 1 µM
[29] = second compound 100 µM, first compound 3.16 µM
[30] = second compound 100 µM, first compound 10 µM

SMILES	IC50 (second compound 1 µM)	IC50 (second compound 3.16 µM)	IC50 (second compound 10 µM)	IC50 (second compound 31.6 µM)	IC50 (second compound 100 µM)	viability, T/C [1]	viability, T/C [2]	viability, T/C [3]	viability, T/C [4]	viability, T/C [5]	viability, T/C [6]	viability, T/C [7]	viability, T/C [8]	viability, T/C [9]	viability, T/C [10]	viability, T/C [11]	viability, T/C [12]	viability, T/C [13]	viability, T/C [14]	viability, T/C [15]	also measured
CC(C)n1c(=O)n(C)c2cnc3cc(F)c(-c4ccc(OCCCN5CCCCC5)nc4)cc3c21 + Cn1nnc2c(C(N)=O)ncn2c1=O	> 10 µM	> 10 µM	> 10 µM	> 10 µM	> 10 µM	93.1%	102%	91.8%	99.7%	101%	93.6%	94.3%	102%	101%	119%	100%	94.2%	90.8%	97.7%	98.4%	viability, T/C [16]: 106%; viability, T/C [17]: 106%; viability, T/C [18]: 95%; viability, T/C [19]: 103%; viability, T/C [20]: 103%; viability, T/C [21]: 101%; viability, T/C [22]: 104%; viability, T/C [23]: 116%; viability, T/C [24]: 90.8%; viability, T/C [25]: 103%; viability, T/C [26]: 96.2%; viability, T/C [27]: 98.3%; viability, T/C [28]: 100%; viability, T/C [29]: 95.8%; viability, T/C [30]: 82.1%
CC1COCCN1c1cc(-c2ccnn2C)c2ccnc(-c3ccn[nH]3)c2n1 (stereo not given) + Cn1nnc2c(C(N)=O)ncn2c1=O	2.82 µM	2.15 µM	7.34 µM	4.44 µM	3.49 µM	84.8%	77.5%	61.2%	59.5%	48.1%	44.4%	92.6%	77.7%	62.2%	56.7%	44.1%	47.3%	98.3%	85.4%	75.7%	viability, T/C [16]: 58.2%; viability, T/C [17]: 54%; viability, T/C [18]: 48.8%; viability, T/C [19]: 95.2%; viability, T/C [20]: 85.5%; viability, T/C [21]: 71.4%; viability, T/C [22]: 59.6%; viability, T/C [23]: 51.6%; viability, T/C [24]: 46.6%; viability, T/C [25]: 90.3%; viability, T/C [26]: 76.8%; viability, T/C [27]: 69.9%; viability, T/C [28]: 57.9%; viability, T/C [29]: 49.7%; viability, T/C [30]: 44.8%
COc1cc(C)[nH]c(=O)c1CN1CCc2c(Cl)cc(C(OC)C3COC3)c(Cl)c2C1=O (stereo not given) + Cn1nnc2c(C(N)=O)ncn2c1=O	> 10 µM	> 10 µM	> 10 µM	> 10 µM	> 10 µM	91.4%	103%	89.9%	86.8%	94%	92%	95.2%	98.8%	99.2%	105%	90.9%	97.3%	106%	104%	99.7%	viability, T/C [16]: 103%; viability, T/C [17]: 98.2%; viability, T/C [18]: 102%; viability, T/C [19]: 104%; viability, T/C [20]: 107%; viability, T/C [21]: 101%; viability, T/C [22]: 106%; viability, T/C [23]: 99%; viability, T/C [24]: 105%; viability, T/C [25]: 102%; viability, T/C [26]: 98.9%; viability, T/C [27]: 99.3%; viability, T/C [28]: 87.1%; viability, T/C [29]: 96.4%; viability, T/C [30]: 94.7%
COc1ccc([C@@H](O)c2cc(-c3ncnc4cc(N5CCOCC5)ccc34)c(F)cc2Cl)nn1 + Cn1nnc2c(C(N)=O)ncn2c1=O	> 10 µM	> 10 µM	> 10 µM	> 10 µM	> 10 µM	93.8%	97.1%	87.3%	73.5%	65.6%	52%	98.8%	92.5%	96.7%	82.5%	68.9%	52.9%	108%	97.3%	96.5%	viability, T/C [16]: 80.1%; viability, T/C [17]: 63.7%; viability, T/C [18]: 55.5%; viability, T/C [19]: 109%; viability, T/C [20]: 101%; viability, T/C [21]: 92.5%; viability, T/C [22]: 80.1%; viability, T/C [23]: 71.4%; viability, T/C [24]: 59.3%; viability, T/C [25]: 105%; viability, T/C [26]: 99.9%; viability, T/C [27]: 95.7%; viability, T/C [28]: 91.2%; viability, T/C [29]: 70.3%; viability, T/C [30]: 57%
Cc1cc(C)c(CNC(=O)c2cc(-c3ccc(CN4CCOCC4)cc3)cc3c2cnn3C2CCCC2)c(=O)[nH]1 + Cn1nnc2c(C(N)=O)ncn2c1=O	> 10 µM	> 10 µM	> 10 µM	> 10 µM	> 10 µM	91%	102%	92.1%	92.8%	90.6%	105%	93.6%	94.5%	101%	104%	100%	101%	99.3%	97.8%	98.8%	viability, T/C [16]: 93.9%; viability, T/C [17]: 94.9%; viability, T/C [18]: 96%; viability, T/C [19]: 98.5%; viability, T/C [20]: 102%; viability, T/C [21]: 108%; viability, T/C [22]: 110%; viability, T/C [23]: 104%; viability, T/C [24]: 94.7%; viability, T/C [25]: 94.5%; viability, T/C [26]: 98.5%; viability, T/C [27]: 98.9%; viability, T/C [28]: 99%; viability, T/C [29]: 99.8%; viability, T/C [30]: 96%
[2H]c1nc(C)nc([2H])c1-c1cc(NC[C@@H](C)c2cccc3c(C(=O)NC)ccnc23)ncn1 + Cn1nnc2c(C(N)=O)ncn2c1=O	> 10 µM	> 10 µM	> 10 µM	> 10 µM	> 10 µM	94.1%	96.6%	97.9%	99.5%	105%	91.2%	100%	104%	98.5%	97.5%	90.8%	96.9%	110%	99.8%	97.7%	viability, T/C [16]: 101%; viability, T/C [17]: 101%; viability, T/C [18]: 107%; viability, T/C [19]: 109%; viability, T/C [20]: 104%; viability, T/C [21]: 108%; viability, T/C [22]: 112%; viability, T/C [23]: 99.8%; viability, T/C [24]: 118%; viability, T/C [25]: 101%; viability, T/C [26]: 102%; viability, T/C [27]: 99.3%; viability, T/C [28]: 102%; viability, T/C [29]: 103%; viability, T/C [30]: 104%
